Laboratory results as given in US20260317367A1, “SALTS INCLUDING CRYSTALLINE SALTS OF 25-HYDROXY-CHOLEST-5-EN-3-SULFATE AND METHODS FOR PREPARING SAME” (Durect Corporation, priority 2022, published 2026).
Where a name gives a salt, the structure may show the parent alone. Each block holds one molecule with its values, some of them ahead of it.

Legend:
lipid biosynthesis = settings: shown previously; cited from earlier work
[1] = tested on: cholesterol secretion and degradation; settings: shown previously; cited from earlier work
[2] = Humidity / water activity stability of crystalline 25HC3S sodium forms; format: physicochemical
[3] = Dynamic vapor sorption (DVS), hygroscopicity; format: physicochemical; settings: DVS
Description: Dynamic vapor sorption (DVS) measures the uptake of a vapor (typically water) by a sample when exposed to a changing relative humidity. The loss of water can also be measured as relative humidity is decreased. Hygroscopic materials tend to absorb water more readily than non-hygroscopic. In some cases, hydrates absorb water to create higher-order hydrates (e.g., a monohydrate converting to a dihydrate when exposed to increasingly humid conditions). In some salts of the disclosure, moisture is retained upon exposure in a DVS experiment and little or no weight loss is observed upon heating from room temperature. In such experiments, the hygroscopic nature of the salt under study may indicate the formation of a hydrate from an anhydrate. […] Exemplary methods for collecting DVS data are set forth in Example 26.
Dynamic vapor sorption data was collected on a Surface Measurement System DVS Intrinsic instrument. The samples were not dried prior to analysis. Sorption and desorption data were collected over a range from 5% to 95% RH in 10% RH increments under a nitrogen purge. The equilibrium criteria used for the analyses were 0.001 dm/dt weight change in 5 minutes with a minimum step time of 30 minutes and maximum equilibration time of 180 minutes with a 3 minute data logging interval. Data were not corrected for the initial moisture content of the sample.

SMILES: C[C@H](CCCC(C)(C)O)[C@H]1CCC2C3CC=C4C[C@@H](OS(=O)(=O)O)CC[C@]4(C)C3CC[C@@]21C (stereo partly drawn) [Salt 25HC3S, [(3S,10R,13R,17R)-17-[(1R)-5-hydroxy-1,5-dimethyl-hexyl]-10,13-dimethyl-2,3,4,7,8,9,11,12,14,15,16,17-dodecahydro-1H-cyclopenta[a]phenanthren-3-yl]sulfate]
Effect on lipid biosynthesis (lipid biosynthesis): decreases
Effect on cholesterol secretion and degradation [1]: increases

Behaviour under humid conditions (in words) ([2]; humid conditions): stabilizes as a hydrate
SMILES: C[C@H](CCCC(C)(C)O)[C@H]1CC[C@H]2[C@@H]3CC=C4C[C@@H](OS(=O)(=O)[O-])CC[C@]4(C)[C@H]3CC[C@]12C.[Na+] [crystalline 25HC3S sodium, Sodium [(3S,10R,13R,17R)-17-[(1R)-5-hydroxy-1,5-dimethyl-hexyl]-10,13-dimethyl-2,3,4,7,8,9,11,12,14,15,16,17-dodecahydro-1H-cyclopenta[a]phenanthren-3-yl]sulfate]

Hygroscopicity (in words) [3]: hygroscopic
Water activity above which a liquid crystal may form ([2]; high water activities): above 0.73
SMILES: CC(CCCC(C)(C)O)C1CCC2C3CC=C4CC(OS(=O)(=O)O)CCC4(C)C3CCC12C (centres unmarked) [Form I, reference compound]
